Results published in patent publication US20240225981A1, “Synthesized Molecule of Solketal Esters from Palm Kit Oil and Glycerin for Cosmetic and Agricultural Formulations” (BRASIL BIO FUELS S.A, priority 2023, published 2024).
Entries after “also recorded” stand apart in the source; their conditions may differ.

Experiments:
eye = assay: Eye irritation tests (OECD and GHS); type: in vivo; conditions: OECD and GHS standards
Text: In eye irritation tests, the product was classified as non-irritating according to OECD and GHS standards.

skin = assay: Skin irritation tests (OECD and GHS); type: in vivo; conditions: OECD and GHS standards; non-irritating in 2 tests, one test mild
Text: Two new batches of cocoyl glyceryl solketal were sent to confirm dermal irritation tests.

Q: How did the Eye irritation classification (eye) turn out when Cocoyl glyceryl solketal was run?
A: non-irritating

Q: What about the Skin irritation classification (skin) of the same substance?
A: non-irritating; also recorded: mild dermal irritation
